Data on one compound can be found in patent US20080287377A1, “Composition Based on Triethyl Citrate for the Prevention of Enzymatic Hydrolysis of Triglycerides” (priority 2005, published 2008).

For the assay, the target named is T1, porcine lipase (Sus scrofa, UniProt P00591).
T1 sequence (P00591 1-450): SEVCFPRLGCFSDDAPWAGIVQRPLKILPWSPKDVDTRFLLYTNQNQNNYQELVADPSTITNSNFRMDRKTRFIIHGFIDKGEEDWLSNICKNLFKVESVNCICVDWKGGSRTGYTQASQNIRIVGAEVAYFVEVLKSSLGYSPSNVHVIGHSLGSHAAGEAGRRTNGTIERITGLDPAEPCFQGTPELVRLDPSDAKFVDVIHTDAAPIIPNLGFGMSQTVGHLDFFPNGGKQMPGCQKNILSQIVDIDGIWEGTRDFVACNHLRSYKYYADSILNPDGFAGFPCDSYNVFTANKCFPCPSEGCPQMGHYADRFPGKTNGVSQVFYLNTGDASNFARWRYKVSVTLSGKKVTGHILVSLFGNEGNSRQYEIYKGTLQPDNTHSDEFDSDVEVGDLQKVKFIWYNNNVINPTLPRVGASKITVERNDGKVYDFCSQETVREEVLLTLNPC
Description: Inhibition of the lyses of triglycerides (olive oil) by porcine lipase, colorimetric test of released fatty acids. The following applies: for Absorbance Mean: 37° C., read at 546 nm. The assay is classed as biochemical. The procedure: The inhibition of the lyses of triglycerides in the presence of porcine lipase was evaluated by analysing the released fatty acids using a colorimetric test.
The test consists in two distinct phases, one enzymatic reaction test which enables the lyses of triglycerides to leave the olive oil in the presence of porcine lipase and, successively, a colorimetric essay to determine the released fatty acids formed.
The porcine lipase, in the presence of the substrata (olive oil) and in opportune incubation conditions, catalyzes the following reaction:
Triglycerides+H2O→Diglycerides+Fatty acids
The dose of fatty acids allows indirect evaluation of the enzymatic activity and the lyses of triglycerides.
To evacuate the inhibition activity of the substance being analysed, three different concentrations of the substance under examination (5%, 1% and 0.5% in water) were tested at two different times (15 and 30 minutes).
In order to allow complete solubility, the 5% concentration was left at room temperature for 72 hours.
The porcine lipase was dissolved in deionised water at 4° C. just before use at the concentrations of 2000 U/ml. As a source of triglycerides olive oil was used. The buffer used for the reaction is Tris HCl 200 mM, pH=7.7 at 37° C. The test was conducted in the presence and in the absence of substance to be tested at different concentrations.
The following reagents are incubated at 37° C.: deionised water (150 μL), buffer (100 μL), olive oil (300 μL).
In the case of the sample (TEC 5%, 1% and 0.5%), the water was substituted with 150 μL of the solution to be tested.
Subsequent, the enzymatic solution (200 μL) was added and the reaction was allowed to develop for 30 and 15 minutes at a temperature of 37° C. On termination of the 15 and 30 minute periods, the reaction was blocked by adding 300 μL of ethanol at 95%.
50 μL of the solution containing the released fatty acids formed are used for the calorimetric dose, carried out using the special kit, that provides the necessary reagents to develop the reaction described below.
In the presence of the Acyl-CoA enzyme synthesis (AcylCS) and adenosin-5′-triphosphate (ATP) the released fatty acids are converted into acyl-CoA, adenosin-5′-monophosphate (AMP) and pyrophosphate. Acyl-CoA reacts with oxygen (O2) in the presence of Acyl coA oxidase (ACOD) forming 2,3-enoylcoenzymeA. The resulting H202 converts the 2,4,6-tribromo-3-hydroxy-benzoic acid (TBHB) and the 4-aminoantipyrine (4-AA) into a red stain in the presence of peroxidase (POD).
The samples are read at the 546 nm wave length, before and after the addition of ACOD and the reaction is conducted at room temperature.
Fatty acids+CoA+ATP→acyl-CoA+AMP+pyrophosphate
Acyl-CoA+O2→enoyl-coA+H202

Where [1] appears, read: TEC 0.5% in water, 15 min reaction.
The mark [2] stands for this setting: TEC 0.5% in water, 30 min reaction.
[3] abbreviates: TEC 1% in water, 15 min reaction.
[4] abbreviates: TEC 1% in water, 30 min reaction.
Where [5] appears, read: TEC 5% in water, 15 min reaction.
Where [6] appears, read: TEC 5% in water, 30 min reaction.

Structures can show the parent of a compound that is named as a salt.

For the compound `CCOC(=O)CC(O)(CC(=O)OCC)C(=O)OCC` [TEC, triethyl citrate], the “fatty acids reduction compared to control (%)” value (“fatty acids reduction … (%)” below) under setting [1] is 18.04%; the “fatty acids reduction … (%)” value under setting [2] was found to be 11.10%; the “fatty acids reduction … (%)” value under setting [3] stood at 17.12%; the “fatty acids reduction … (%)” value under setting [4] was found to be 12.70%; the “fatty acids reduction … (%)” value under setting [5] is on record as 44.84%; the “fatty acids reduction … (%)” value under setting [6] is recorded as 81.50%. Besides, the “Absorbance Mean” value runs as follows: under setting [1], 0.584; under setting [2], 0.084; under setting [3], 0.5905; under setting [4], 0.083; under setting [5], 0.393; under setting [6], 0.018. In addition, the “protection of the triglycerides from the enzymatic hydrolysis exercised by the lipases” value (maximum percentage according to the method followed, from the absorbance values) is “up to 85%”.
